# Where a name gives a salt, the structure may show the parent alone. Read-outs that look alike come from different tables or passages of the source.
# System: rat basophilic leukemia cells (RBL-2H3)
# Assay: Degranulation inhibitory activity: hexosaminidase release-inhibitory activity test
# Assay type: cell-based
# Details: for IC50 value (inhibition of release of hexosaminidase) / IC50: IgE-sensitized RBL-2H3 cells, DNP-BSA antigen-induced degranulation; for Activity compared with the positive control ketotifen fumarate: statement in words, hexosaminidase release, RBL-2H3
# Procedure: With regard to the measurement of degranulation inhibitory activity, a test for hexosaminidase release-inhibitory activity was carried out by referring to Non-Patent Document 1 and Non-Patent Document 2 (Kataoka M., Takagaki Y., Shoyakugaku Zasshi, 46(1), 25-29, 1992). Firstly, rat basophilic leukemia cells (RBL-2H3) were made into 5×10^5 cells/mL and seeded on a 96-well plate and anti-DNP-BSA mouse IgE antibody was added thereto so as to make its final concentration 0.29 μg/mL and incubated with 5% CO2 at 37° C. overnight in an incubator to sensitize the cells. Then the cells were washed with a phosphate-buffered physiological saline solution twice and 130 μL of a releasing mixture (comprising 116.9 mM of NaCl, 5.4 mM of KCl, 0.8 mM of MgSO4, 2.0 mM of CaCl2, 5.6 mM of glucose, 0.1% of bovine serum albumin and 25 mM of HEPES) was added thereto.
# Then, Compounds (A) and (C) obtained in the invention were first dissolved in 25% ethanol, and then Compound (A) was diluted with 1% ethanol to achieve the final concentration in 7 serial dilutions in steps of from 1 μg/mL to 5 ng/mL; and Compound (C) was diluted with 1% ethanol to achieve the final concentration by 7 serial dilutions in steps of from 10 μg/mL to 50 ng/mL. Compound (B) was first dissolved in water, and then diluted with 1% ethanol to achieve the final concentration by 7 serial dilutions in steps of from 50 μg/mL to 50 ng/mL. Compound (D) was diluted with 4% ethanol-20 mM phosphate buffer to achieve the final concentration by 4 serial dilutions in steps of 2.6 μg/mL to 165 ng/mL. 10 μL portion samples of all concentrations of Compounds (A), (B), (C) and (D) were added to the cells, respectively, and allowed to stand at 37° C. under 5% CO2 in an incubator for 10 minutes. Then 10 μL of an antigen DNP-BSA (2 μg/mL) was added, the mixture was allowed to stand in an incubator for 1 hour to induce degranulation, and centrifuged to collect the supernatant. 15 μL of a 5 mM hexosaminidase substrate solution (p-nitrophenyl-β-D-glucosaminide) was added to 45 μL of the supernatant liquid, the mixture was made to react at 37° C. for 3 hours and 180 μL of a solution for stopping the reaction (0.1M NaHCO3/Na2CO3; pH 10.0) was added thereto. After completion of the reaction, absorbance at 415 nm was measured and the hexosaminidase release-inhibitory activity was calculated by the following formula. Meanwhile, a positive control (200 μM of ketotifen fumarate) and a negative control corresponding to the final solvent concentration for the test substance were prepared.
# Hexosaminidase release-inhibitory Activity(%)=[1−(S−B/C−b)]×100
# S: absorbance of the test substance upon addition of cells
# B: absorbance upon addition of the test substance in the absence of the cells
# C: absorbance of the negative control
# b: absorbance in the absence of cells
# [1] = molar concentration, read-out: IC50 value (inhibition of release of hexosaminidase), molar value in brackets
# [2] = Rattus norvegicus, mass concentration, read-out: IC50 value (inhibition of release of hexosaminidase)
# [3] = Rattus norvegicus, molar concentration, read-out: IC50 value (inhibition of release of hexosaminidase), molar value in brackets
SMILES,IC50 value (inhibition of release of hexosaminidase) (mass concentration) [µg/mL],IC50 [1] [µM],Activity compared with the positive control ketotifen fumarate,IC50 [2] [µg/mL],IC50 [3] [µM]
"O=c1oc2c3c(cc4c(=O)oc5c(O)c(OC6O[C@H](CO)[C@@H](O)[C@H](O)[C@H]6O)cc1c5c24)OCO3 (stereo partly shown) [Compound (A), 3,4-dioxoloellagic acid 4′-glucoside]",0.00663,0.014,,,
"COc1c(O)cc2c(=O)oc3c(O)c(OC4O[C@H](CO)[C@@H](O)[C@H](O)[C@H]4O)cc4c(=O)oc1c2c34 (stereo partly shown) [Compound (B), 3-O-methylellagic acid 4′-glucoside]",14.83,31,higher activity,,
"COc1cc2c(=O)oc3c(OC)c(O)cc4c(=O)oc(c1OC)c2c34 [Compound (C), 3,3′,4-tri-O-methylellagic acid]",,,higher activity,4.47,13
"O=c1oc2c3c(cc4c(=O)oc5c(O)c(O)cc1c5c24)OCO3 [Compound (D), 3,4-dioxoloellagic acid]",,,higher activity,1.07,3
"CN1CCC(=C2c3ccccc3CC(=O)c3sccc32)CC1 [Ketotifen fumarate, ketotifen fumarate, reference compound]",,,,71.8,169

# — patent publication US20090143318A1, “DEGRANULATION INHIBITOR” (Tropical Technology Center Ltd., priority 2006, published 2009)
